We go through 13 compounds from ChEMBL document CHEMBL1177708, “Design, synthesis, and biological evaluation of a novel class of gamma-secretase modulators with PPARgamma activity” (J Med Chem, 2010).

Structures are written as SMILES. Activity calls are given as the source filed them. The rule behind the calls is not given here. Where only a bound is given, the exact number is not on record here.

Data set [1] has as its target T1, Prostaglandin G/H synthase 1 (Ovis aries) (UniProt P05979).
T1 sequence (whole entry): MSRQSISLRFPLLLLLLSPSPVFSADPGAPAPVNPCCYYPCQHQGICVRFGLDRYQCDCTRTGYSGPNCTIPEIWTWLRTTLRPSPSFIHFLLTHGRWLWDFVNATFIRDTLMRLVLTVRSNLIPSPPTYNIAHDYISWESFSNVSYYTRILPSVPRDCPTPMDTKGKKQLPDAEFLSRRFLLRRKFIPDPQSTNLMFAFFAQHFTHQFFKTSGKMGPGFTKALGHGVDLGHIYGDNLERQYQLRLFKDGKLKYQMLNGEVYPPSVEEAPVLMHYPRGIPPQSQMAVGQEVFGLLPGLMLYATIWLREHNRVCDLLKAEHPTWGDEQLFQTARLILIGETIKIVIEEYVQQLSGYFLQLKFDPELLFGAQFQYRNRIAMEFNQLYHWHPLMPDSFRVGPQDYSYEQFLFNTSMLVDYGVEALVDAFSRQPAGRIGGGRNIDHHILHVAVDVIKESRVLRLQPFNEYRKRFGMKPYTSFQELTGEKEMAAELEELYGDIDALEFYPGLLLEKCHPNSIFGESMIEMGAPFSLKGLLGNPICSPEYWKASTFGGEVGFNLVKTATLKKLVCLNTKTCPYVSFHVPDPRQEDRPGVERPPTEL
As to the kind of experiment: Inhibition of ovine COX1 assessed as residual activity at 10 uM after 5 mins.

For data set [2], the target named is T2, Peroxisome proliferator-activated receptor gamma (Homo sapiens) (UniProt P37231).
T2 sequence (whole entry): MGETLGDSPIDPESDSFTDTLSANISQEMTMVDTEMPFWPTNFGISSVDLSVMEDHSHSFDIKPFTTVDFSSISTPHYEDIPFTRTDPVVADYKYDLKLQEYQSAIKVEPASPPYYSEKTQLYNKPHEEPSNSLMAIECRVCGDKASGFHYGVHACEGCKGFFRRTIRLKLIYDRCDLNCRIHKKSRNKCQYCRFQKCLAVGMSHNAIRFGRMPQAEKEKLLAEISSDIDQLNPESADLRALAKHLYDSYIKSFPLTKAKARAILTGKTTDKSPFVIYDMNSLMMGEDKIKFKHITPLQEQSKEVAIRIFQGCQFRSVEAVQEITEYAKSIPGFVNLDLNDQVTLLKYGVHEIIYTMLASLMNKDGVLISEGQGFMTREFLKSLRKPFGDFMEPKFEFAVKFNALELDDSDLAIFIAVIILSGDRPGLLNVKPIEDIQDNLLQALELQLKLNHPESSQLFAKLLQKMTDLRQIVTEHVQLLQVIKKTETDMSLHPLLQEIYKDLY
As to the kind of experiment: Agonist activity at human PPARgamma-LBD expressed in COS7 cells co-transfected with Gal4 by luciferase based transactivation assay relative to pioglitazone. The class given is functional, cell-based. The note with it: COS-7.

For data set [3], the target named is T3, Peroxisome proliferator-activated receptor delta (Homo sapiens) (UniProt Q03181).
T3 sequence (whole entry): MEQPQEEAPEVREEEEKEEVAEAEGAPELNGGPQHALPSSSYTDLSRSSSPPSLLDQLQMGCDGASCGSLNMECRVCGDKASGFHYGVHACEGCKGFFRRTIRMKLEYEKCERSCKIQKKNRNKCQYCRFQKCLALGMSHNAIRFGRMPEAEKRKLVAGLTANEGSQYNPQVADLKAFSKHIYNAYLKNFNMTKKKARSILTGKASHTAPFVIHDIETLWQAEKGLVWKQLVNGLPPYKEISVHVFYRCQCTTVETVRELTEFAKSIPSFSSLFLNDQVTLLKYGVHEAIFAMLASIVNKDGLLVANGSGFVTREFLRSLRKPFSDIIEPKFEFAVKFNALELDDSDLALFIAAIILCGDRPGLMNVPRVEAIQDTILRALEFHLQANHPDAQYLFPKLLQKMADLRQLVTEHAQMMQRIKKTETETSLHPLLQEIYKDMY
The data set can be described thus: Agonist activity at human PPARdelta-LBD expressed in COS7 cells co-transfected with Gal4 at 10 uM by luciferase based transactivation assay. The class given is functional, cell-based. The note with it: COS-7.

The target in data set [4] is T4, Peroxisome proliferator-activated receptor alpha (Homo sapiens) (UniProt Q07869).
T4 sequence (whole entry): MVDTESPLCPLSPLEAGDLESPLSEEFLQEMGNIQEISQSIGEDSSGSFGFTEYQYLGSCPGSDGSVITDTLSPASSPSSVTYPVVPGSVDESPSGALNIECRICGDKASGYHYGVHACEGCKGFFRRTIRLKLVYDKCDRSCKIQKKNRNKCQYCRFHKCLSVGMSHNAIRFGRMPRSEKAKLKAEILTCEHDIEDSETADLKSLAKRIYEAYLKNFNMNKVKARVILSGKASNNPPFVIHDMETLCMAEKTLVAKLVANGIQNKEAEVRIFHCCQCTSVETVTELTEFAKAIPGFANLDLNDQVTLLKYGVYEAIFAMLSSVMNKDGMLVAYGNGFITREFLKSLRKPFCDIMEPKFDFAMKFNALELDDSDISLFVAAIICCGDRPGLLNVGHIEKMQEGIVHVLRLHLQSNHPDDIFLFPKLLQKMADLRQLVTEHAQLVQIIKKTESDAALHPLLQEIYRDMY
The data set can be described thus: Agonist activity at human PPARalpha-LBD expressed in COS7 cells co-transfected with Gal4 at 10 uM by luciferase based transactivation assay. It counts as functional, cell-based. The note with it: COS-7.

The nature of the next data set: cells. The note with it: CHO, 24 h.
For the next data set, the system named is CHO. As to the kind of experiment: Cytotoxicity against CHO cells at 60 uM after 24 hrs by Alamar blue assay. The note with it: chinese hamster. The class given is cell-based, Cricetulus griseus.
Data set [5] has as its target T5, Prostaglandin G/H synthase 2 (Homo sapiens) (UniProt P35354).
T5 sequence (whole entry): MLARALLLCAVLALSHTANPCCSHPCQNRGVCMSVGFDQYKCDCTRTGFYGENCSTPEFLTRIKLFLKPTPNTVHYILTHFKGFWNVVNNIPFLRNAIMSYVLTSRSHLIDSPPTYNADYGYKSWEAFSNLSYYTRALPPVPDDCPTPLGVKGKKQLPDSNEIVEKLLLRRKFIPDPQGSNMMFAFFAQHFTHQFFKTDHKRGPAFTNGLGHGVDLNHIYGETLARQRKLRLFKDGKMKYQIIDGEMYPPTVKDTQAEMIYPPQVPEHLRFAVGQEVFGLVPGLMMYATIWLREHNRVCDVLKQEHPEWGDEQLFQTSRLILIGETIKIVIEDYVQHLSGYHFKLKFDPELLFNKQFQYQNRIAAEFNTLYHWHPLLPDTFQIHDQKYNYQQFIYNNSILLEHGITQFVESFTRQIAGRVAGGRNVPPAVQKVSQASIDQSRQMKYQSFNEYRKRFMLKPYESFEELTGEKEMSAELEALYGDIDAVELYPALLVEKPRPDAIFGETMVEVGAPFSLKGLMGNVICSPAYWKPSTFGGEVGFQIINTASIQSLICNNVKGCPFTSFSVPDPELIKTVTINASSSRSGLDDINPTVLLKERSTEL
As to the kind of experiment: Inhibition of human recombinant COX2 assessed as residual activity at 10 uM after 5 mins.

Data set [6] is described as follows: Modulation of gamma-secretase-mediated cleavage of human APP expressed in CHO cells with human presenilin-1 assessed as activation of amyloid beta38 production after 24 hrs by ELISA. The class given is cell-based. In general terms: ELISA stands for enzyme-linked immunosorbent assay.
Data set [7] concerns the target T6, Peroxisome proliferator-activated receptor gamma (Homo sapiens, UniProt P37231).
T6 sequence (P37231 whole entry): T2 sequence (whole entry)
As to the kind of experiment: Agonist activity at human PPARgamma-LBD expressed in COS7 cells co-transfected with Gal4 by luciferase based transactivation assay. The class given is functional, cell-based, COS-7.

Description for cells: Modulation of gamma-secretase-mediated cleavage of human APP expressed in CHO cells with human presenilin-1 assessed as inhibition of amyloid beta42 production after 24 hrs by ELISA

As usually defined, the IC50 is the concentration needed to halve the response being measured. Low readings indicate greater potency, high ones weaker potency. For orientation: EC50 means the concentration that produces a half-maximal response. In the case of `CCCCC(Sc1nc(OCCC2CCCC2)cc(OCCC2CCCC2)n1)C(=O)O` (configuration not stated), the results for the Activity (in data set [1]; in the data set with CHO; in data set [5]) were 68.2%, “Non-toxic” and 84.7%, respectively. The Emax in data set [2] was 127%. The outcome in data set [3] and in data set [4] was inactive. Moreover, the IC50 in “cells” turned out to be 17.2 µM. Also, the EC50 in data set [6] worked out at 9 µM.

For `CCCCC(Sc1nc(OCCC(C)C)cc(OCCC(C)C)n1)C(=O)O` (configuration not stated), the Activity is 72.4% in data set [1], “Non-toxic” in the data set with CHO and 80.5% in data set [5]. The EC50 in data set [7] is 11 µM; in data set [6], 10.9 µM. Moreover, the Emax in data set [2] was determined as 69%. In addition, the outcome in [3] and in data set [4] was inactive. In the data set “cells”, this compound gave an IC50 of 28.2 µM.

Consider `CCCCC(Sc1nc(OCCc2ccc(C)cc2)cc(OCCc2ccc(C)cc2)n1)C(=O)O` (configuration not stated), for which the values for the Activity (in data set [1]; in the data set with CHO; in [5]) were 57.2%, “Non-toxic” and 93.3%, respectively. Further, the values for the EC50 in [7] and in data set [6] were 7.5 µM and 6.4 µM, respectively. This compound also displayed an Emax in data set [2] of 63%. Also, the outcome in [3] and in data set [4] was inactive. The compound further had an IC50 in “cells” of 13 µM.

On to `CCC(Sc1nc(OCCc2ccccc2)cc(OCCc2ccccc2)n1)C(=O)O` (configuration not stated), for which the Activity in data set [1] was 84.6%; in the data set on CHO, “Non-toxic”; in data set [5], 56.9%. Further, the figures for the EC50 in [7] and in [6] were 6.1 µM and 31.1 µM, respectively. This compound yielded an Emax in data set [2] of 57%. For the same compound, the result in [3] and in data set [4] was inactive. Also, it took 41.6 µM to reach half-maximal inhibition in the data set “cells” (IC50).

Take `CCCCC(Sc1nc(OCCCCc2ccccc2)cc(OCCCCc2ccccc2)n1)C(=O)O` (configuration not stated): the figures for the Activity (in data set [1]; in the data set on CHO; in data set [5]) were 78.8%, “Non-toxic” and 53.9%, respectively. Further, the EC50 is 10 µM in data set [7] and 16.4 µM in data set [6]. Moreover, the Emax in data set [2] is 55%. The result in data set [3] and in data set [4] was inactive. In addition, half-maximal inhibition in “cells” (IC50) was put at 22.9 µM.

For the compound `O=C(O)CSc1nc(OCCc2ccccc2)cc(OCCc2ccccc2)n1`, the Activity in data set [1] is 91.8%; with CHO it was “Non-toxic”; in data set [5] it was 91.7%. For the same compound, the EC50 in data set [7] is 3.7 µM; in data set [6], above 40 µM. In [2], this compound gave an Emax of 111%. Moreover, the result in [3] and in data set [4] was inactive. This compound gave an IC50 in “cells” above 40 µM.

Regarding `CCCC[C@H](Sc1nc(OCCc2ccccc2)cc(OCCc2ccccc2)n1)C(=O)O`, the Activity in data set [1] is 83.5%; in the data set with CHO, “Non-toxic”; in data set [5], 92.8%. Moreover, the results for the EC50 in [7] and in [6] were 10.4 µM and 13.5 µM, respectively. Moreover, the Emax in [2] is 62%. In addition, the result in data set [3] and in [4] was inactive. Besides, the midpoint of inhibition in “cells”, the IC50, lay at 32.6 µM.

Take `CCCCC(Sc1nc(OCCCc2ccccc2)cc(OCCCc2ccccc2)n1)C(=O)O` (configuration not stated): the Activity was 78.8% in [1], “Non-toxic” in the data set on CHO and 51.9% in data set [5]. Further, the figures for the EC50 in data set [7] and in data set [6] were 8.9 µM and 16.4 µM, respectively. This compound also returned an Emax in data set [2] of 71%. The outcome in data set [3] and in [4] was inactive. This compound registered an IC50 in “cells” of 30.9 µM.

For `COc1ccc2c(c1)c(CC(=O)O)c(C)n2C(=O)c1ccc(Cl)cc1` [INDOMETHACIN], it took 25 µM to reach half-maximal inhibition in “cells” (IC50).

Take `CCCCC(Sc1nc(OCCC2CC2)cc(OCCC2CC2)n1)C(=O)O` (configuration not stated): the Activity was 97.7% in data set [1], “Non-toxic” with CHO and 87.9% in [5]. Further, the EC50 in [7] was 4.3 µM; in data set [6] it was 24 µM. In [2], this compound registered an Emax of 79%. In addition, the result in [3] and in data set [4] was inactive. The compound also yielded an IC50 in the data set “cells” above 40 µM.

For `CCCCCCC(Sc1nc(OCCc2ccccc2)cc(OCCc2ccccc2)n1)C(=O)O` (configuration not stated), the results for the Activity (in data set [1]; in the data set with CHO; in data set [5]) were 61.8%, “Non-toxic” and 63.8%, respectively. Besides, the 50% effective concentration (EC50) in [7] worked out at 8.8 µM; in data set [6], 24.2 µM. This compound also gave an Emax in [2] of 59%. Besides, the outcome in data set [3] and in data set [4] was inactive. Moreover, in the data set “cells”, the IC50 was determined as 30.4 µM.

In the case of `CCCCC(Sc1nc(OCCc2ccc(OC(F)(F)F)cc2)cc(OCCc2ccc(OC(F)(F)F)cc2)n1)C(=O)O` (configuration not stated), the Activity is 73% in data set [1], “Non-toxic” in the data set with CHO and 75.8% in [5]. The EC50 was 10.3 µM in [7] and 5.5 µM in data set [6]. For the same compound, the Emax in [2] turned out to be 115%. Moreover, the outcome in data set [3] and in data set [4] was inactive. Moreover, the IC50 in “cells” was found to be 8.6 µM.

For the compound `CCCCC(Sc1nc(OCCc2ccc(C#N)cc2)cc(OCCc2ccc(C#N)cc2)n1)C(=O)O` (configuration not stated), the Activity was 88.8% in data set [1], “Non-toxic” in the data set with CHO and 82.6% in [5]. This compound returned an EC50 in data set [7] of 7 µM. Moreover, the Emax in [2] came out at 65%. Besides, the outcome in data set [3] and in data set [4] was inactive. Also, the IC50 in “cells” is above 40 µM.
